These results are taken from patent publication EP0782988A1, “INDOLE DERIVATIVES” (KYOWA HAKKO KOGYO CO., LTD., priority 1995, dated 1997).

This experiment has as its system ovariectomized rats. Kind of experiment: Inhibitory effect on the increase of urinary hydroxyproline excretion by ovariectomy (Test Example 1). The experiment is classed as in vivo, SD strain rats. Particulars: Rattus norvegicus, po, 336 h; ovariectomized female SD rats; test compound 10 mg/kg suspended in 0.3% Tween, orally once a day for two weeks; 24 h urine, hydroxyproline/creatinine molar ratio; versus ovariectomized control and sham-operated rats; read-out: Inhibition rate of increase of the amount of urinary hydroxyproline excretion. As to the method:
The inhibitory effect of the compounds of the present application on bone resorption was determined by their inhibitory effect on the excretion of urinary hydroxyproline which is elevated by ovariectomy of the animals tested, according to the report of Kalu et al. [Bone and Mineral., 14, 175 (1991)].
Test Example 1: Inhibitory effect on the increase of urinary hydroxyproline excretion by ovariectomy
12-weeks-old female SD strain rats (Japan Clea Co., Ltd.) were acclimated for 1 week during which they were given tap water and a standard diet (F2; Funabashi Farmas) ad libitum. The experiment was carried out using the rats weighing 270-310 g. After the animals were subjected to sham operation or bilateral ovariectomy, they were allowed free access to water passed through ion exchange resin instead of tap water, and were housed in individual cages. The test compound (10 mg/kg) was suspended in 0.3% Tween, and the obtained suspension was orally administered to the ovariectomized rats once a day for two weeks starting from the day following ovariectomy (0.5 ml/100 g body weight). 0.3% Tween was similarly administered to sham-operated rats and ovariectomized control rats. After the final administration, the rats were placed in individual metabolic cages and fasted during 24 hours, and urine was collected. The volume of the collected urine was measured and the urine was centrifuged at 3,000 rpm for 15 min at 4°C. The concentration of hydroxyproline in the supernatant was measured by the method of Ikeda et al. [Ann. Rep. Tokyo Metr. Res. Lab. P. H., 36, 277-282 (1985)] and the concentration of creatinine in the supernatant was measured with creatinine test WAKO (Wako Pure Chem.) The amount of urinary hydroxyproline excretion was expressed by the molar ratio of the amount of hydroxyproline to the amount of creatinine. The rate of inhibition on increase of the amount of urinary hydroxyproline excretion in ovariectomized rats treated with the test compound compared to that of the control group was calculated using the following equation. Inhibition rate (%) = [(P1 - P2)/(P1 - P3)] x 100 [formula] • P1 : The amount of urinary hydroxyproline excretion in ovariectomized rats treated with 0.3% Tween (µmol/mmol). • P2 : The amount of urinary hydroxyproline excretion in ovariectomized rats treated with the test compound (µmol/mmol). • P3 : The amount of urinary hydroxyproline in sham-operated rats treated with 0.3% Tween (µmol/mmol).
For the compound `CN(C)CCN(C)C(=O)c1c(C(c2ccc(O)cc2)c2ccc(O)cc2)c2ccccc2n1CCN(C)C` [Compound 22, N-(2-Dimethylaminoethyl)-N-methyl-3-[bis(4-hydroxyphenyl)methyl]-1-(2-dimethylaminoethyl)indole-2-carboxamide], the inhibition in vivo at 10 mg/kg was 100%. The result for `CN(C)CCn1c(C(=O)NCCN2CCCCC2)c(C(c2ccc(O)cc2)c2ccc(O)cc2)c2ccccc21` [Compound 25, N-(2-Piperidinoethyl)-3-[bis(4-hydroxyphenyl)methyl]-1-(2-dimethylaminoethyl)indole-2-carboxamide] reads 100%. The result for `CN(C)CCn1c(C(=O)NCCCN2CCOCC2)c(C(c2ccc(O)cc2)c2ccc(O)cc2)c2ccccc21` [Compound 27, N-(3-Morpholinopropyl)-3-[bis(4-hydroxyphenyl)methyl]-1-(2-dimethylaminoethyl)indole-2-carboxamide] reads 30%; that for `CN(C)CCn1c(C(=O)NCc2cccnc2)c(C(c2ccc(O)cc2)c2ccc(O)cc2)c2ccccc21` [Compound 29, N-(3-Pyridylmethyl)-3-[bis(4-hydroxyphenyl)methyl]-1-(2-dimethylaminoethyl)indole-2-carboxamide], 30%.

Regarding `CN(C)CCn1c(C(=O)NCc2ccncc2)c(C(c2ccc(O)cc2)c2ccc(O)cc2)c2ccccc21` [Compound 30, N-(4-Pyridylmethyl)-3-[bis(4-hydroxyphenyl)methyl]-1-(2-dimethylaminoethyl)indole-2-carboxamide], the inhibition in vivo at 10 mg/kg was 100%. Consider `CN(C)CCn1c(C(=O)NCCc2ccncc2)c(C(c2ccc(O)cc2)c2ccc(O)cc2)c2ccccc21` [Compound 32, N-[2-(4-Pyridyl)ethyl]-3-[bis(4-hydroxyphenyl)methyl]-1-(2-dimethylaminoethyl)indole-2-carboxamide], for which the inhibition in vivo at 10 mg/kg stood at 100%. The result for `CCN1CCCC1CNC(=O)c1c(C(c2ccc(O)cc2)c2ccc(O)cc2)c2ccccc2n1CCN(C)C` (stereo not drawn) [Compound 33, N-[(1-Ethyl-2-pyrrolidinyl)methyl]-3-[bis(4-hydroxyphenyl)methyl]-1-(2-dimethylaminoethyl)indole-2-carboxamide] reads 100%; that for `CN(C)CCn1c(C(=O)NCCC2CCCN2C)c(C(c2ccc(O)cc2)c2ccc(O)cc2)c2ccccc21` (stereo not drawn) [Compound 34, N-[2-(1-Methyl-2-pyrrolidinyl)ethyl]-3-[bis(4-hydroxyphenyl)methyl]-1-(2-dimethylaminoethyl)indole-2-carboxamide], 100%; that for `CN(C)CCn1c(C(=O)NCC2CCCO2)c(C(c2ccc(O)cc2)c2ccc(O)cc2)c2ccccc21` (stereo not drawn) [Compound 37, N-(2-Tetrahydrofuranylmethyl)-3-[bis(4-hydroxyphenyl)methyl]-1-(2-dimethylaminoethyl)indole-2-carboxamide], 100%.
